Results reported in patent US20060069132A1, “Azolecarboxamide herbicides” (priority 2004, published 2006).

Key:
Surinam grass = assay: Test C pre-/postemergence herbicide test; assay type: in vivo, Urochloa decumbens
In short: (§1)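 Pre/post spray; non-phytotoxic solvent + surfactant. Post-timing 1–4 leaves, 2–18 cm. Read-out: visual % control vs untreated, day 12–14, greenhouse.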

corn = assay: Test C pre-/postemergence herbicide test; assay type: in vivo, Zea mays
In short: as §1

woolly cupgrass = assay: Test C pre-/postemergence herbicide test; assay type: in vivo, Eriochloa villosa
In short: as §1

giant foxtail = assay: Test C pre-/postemergence herbicide test; assay type: in vivo, Setaria faberi
In short: as §1

lambsquarters = assay: Test C pre-/postemergence herbicide test; assay type: in vivo, Chenopodium album
In short: as §1

morningglory = assay: Test C pre-/postemergence herbicide test; assay type: in vivo, Ipomoea coccinea; parameters: key to Plant response rating, Morningglory: 0 = no effect, 100 = complete control
In short: as §1

yellow nutsedge = assay: Test C pre-/postemergence herbicide test; assay type: in vivo, Cyperus esculentus
In short: as §1

[1] = system: common (oilseed) sunflower; assay: Test C pre-/postemergence herbicide test; assay type: in vivo, Helianthus annuus; conditions: preemergence
In short: as §1

rice = assay: Test C flooded paddy test; assay type: in vivo, Oryza sativa; conditions: for Plant response rating, Rice: 500 g ai/ha, visual rating after 12 to 14 days
In short: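 Injury scored visually against controls on a 0 (no effect) to 100 (complete control) scale, 12 to 14 days after treatment in greenhouse. Flooded paddy plants treated at 2-leaf stage; postemergence plants at 1- to 4-leaf stage, 2 to 18 cm tall.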

[2] = system: smallflower umbrella sedge; assay: Test C flooded paddy test; assay type: in vivo, Cyperus difformis; conditions: for Plant response rating, Sedge, Umbrella: 500 g ai/ha, visual rating after 12 to 14 days
ducksalad = assay: Test C flooded paddy test; assay type: in vivo, Heteranthera limosa; conditions: for Plant response rating, Ducksalad: 500 g ai/ha, visual rating after 12 to 14 days
[3] = 62 g ai/ha, preemergence, scale 0 to 100
[4] = 250 g ai/ha, scale 0-100, preemergence
[5] = 500 g ai/ha, scale 0 to 100 (0 no effect, 100 complete control), visual, 12 to 14 days, preemergence
[6] = 125 g ai/ha, scale 0 (no effect) to 100 (complete control), visual, 12 to 14 days, preemergence
[7] = 500 g ai/ha, scale 0 to 100 (0 no effect, 100 complete control), visual, 12 to 14 days
[8] = 125 g ai/ha, scale 0 to 100 (0 no effect, 100 complete control)
[9] = 250 g ai/ha, scale of 0 to 100, 0 is no effect, 100 is complete control
[10] = scale 0 to 100 (0 no effect, 100 complete control)
[11] = Postemergence, 500 g ai/ha, scale 0 to 100
[12] = Postemergence, 250 g ai/ha, scale 0 to 100, 0 no effect, 100 complete control
[13] = postemergence, 125 g ai/ha, scale 0 to 100
[14] = postemergence, 62 g ai/ha, scale 0 to 100

With `CCn1nc(C2(C)CC2)cc1C(=O)Nc1cc(C(=O)N(C)C)ccc1F` [Compound 299] the “Plant response rating, Surinam Grass” value (Surinam grass; [3]) was 75, the “Plant response rating, Surinam Grass” value (Surinam grass; [4]) was 100 and the “Plant response rating, Surinam Grass” value (Surinam grass; [5]) was 100. For the same compound, the “Plant response rating, Corn” value (corn; [6]) was 25, the “Plant response rating, Corn” value (corn; [4]) was 60 and the “Plant response rating, Corn” value (corn; [5]) was 60. For the same compound, the “Plant response rating, Cupgrass, Woolly” value (woolly cupgrass; [3]) was 50, the “Plant response rating, Cupgrass, Woolly” value (woolly cupgrass; [6]) was 70 and the “Plant response rating, Cupgrass, Woolly” value (woolly cupgrass; [4]) was 90. For the same compound, the “Plant response rating, Cupgrass, Woolly” value (woolly cupgrass; [5]) was 100, the “Plant response rating, Foxtail, Giant” value (giant foxtail; [3]) was 100 and the “Plant response rating, Foxtail, Giant” value (giant foxtail; [6]) was 100. The “Plant response rating, Foxtail, Giant” value (giant foxtail; [4]) was 100, the “Plant response rating, Foxtail, Giant” value (giant foxtail; [5]) was 100 and the “Plant response rating, Lambsquarters” value (lambsquarters; [3]) was 100. For the same compound, the “Plant response rating, Lambsquarters” value (lambsquarters; [6]) was 100, the “Plant response rating, Lambsquarters” value (lambsquarters; [4]) was 100 and the “Plant response rating, Lambsquarters” value (lambsquarters; [5]) was 100. The “Plant response rating, Morningglory” value (morningglory; [3]) was 5, the “Plant response rating, Morningglory” value (morningglory; [6]) was 75 and the “Plant response rating, Morningglory” value (morningglory; [4]) was 100. For the same compound, the “Plant response rating, Morningglory” value (morningglory; [5]) was 100, the “Plant response rating, Nutsedge, Yellow” value (yellow nutsedge; [3]) was 40 and the “Plant response rating, Nutsedge, Yellow” value (yellow nutsedge; [6]) was 50. The “Plant response rating, Nutsedge, Yellow” value (yellow nutsedge; [4]) was 60, the “Plant response rating, Nutsedge, Yellow” value (yellow nutsedge; [5]) was 80 and the “Plant response rating, Sunflower” value ([1]; 62 g ai/ha, scale 0 to 100) was 10. The “Plant response rating, Sunflower” value ([1]; 250 g ai/ha, scale 0-100) was 100, the “Plant response rating, Sunflower” value [1, 7] was 100 and the “Rice plant response rating” value (rice; 62 g ai/ha, scale 0 to 100) was 70. The “Rice plant response rating” value (rice; [8]) was 80, the “Rice plant response rating” value (rice; [9]) was 80 and the “Plant response rating, Rice” value (rice; [10]) was 85. The “Sedge, Umbrella plant response rating” value ([2]; 62 g ai/ha, scale 0 to 100) was 85, the “Sedge, Umbrella plant response rating” value [2, 8] was 95 and the “Sedge, Umbrella plant response rating” value [2, 9] was 95. For the same compound, the “Plant response rating, Sedge, Umbrella” value [2, 10] was 95, the “Ducksalad plant response rating” value (ducksalad; 62 g ai/ha, scale 0 to 100) was 95 and the “Ducksalad plant response rating” value (ducksalad; [8]) was 95. For the same compound, the “Ducksalad plant response rating” value (ducksalad; [9]) was 95 and the “Plant response rating, Ducksalad” value (ducksalad; [10]) was 95.
In the case of `CCn1nc(C(C)(C)C)cc1C(=O)Nc1cccc(OC(F)F)c1` [Compound 332], the “Plant response rating, Surinam Grass” value (Surinam grass; [3]) is reported as 5, the “Plant response rating, Surinam Grass” value (Surinam grass; [4]) is reported as 10 and the “Plant response rating, Surinam Grass” value (Surinam grass; [5]) is reported as 15. The “Surinam Grass plant response rating” value (Surinam grass; [11]) was 30, the “Plant response rating, Surinam Grass” value (Surinam grass; [12]) was 10 and the “Plant response rating, Surinam Grass” value (Surinam grass; [13]) was 5. The “Plant response rating, Surinam Grass” value (Surinam grass; [14]) was 5, the “Plant response rating, Corn” value (corn; [3]) was 0 and the “Plant response rating, Corn” value (corn; [6]) was 0. For the same compound, the “Plant response rating, Corn” value (corn; [4]) was 0, the “Plant response rating, Corn” value (corn; [5]) was 5 and the “Corn plant response rating” value (corn; [11]) was 5. The “Plant response rating, Corn” value (corn; [12]) was 5, the “Plant response rating, Corn” value (corn; [13]) was 0 and the “Plant response rating, Corn” value (corn; [14]) was 0. The “Plant response rating, Cupgrass, Woolly” value (woolly cupgrass; [3]) was 0, the “Plant response rating, Cupgrass, Woolly” value (woolly cupgrass; [6]) was 0 and the “Plant response rating, Cupgrass, Woolly” value (woolly cupgrass; [4]) was 5. The “Plant response rating, Cupgrass, Woolly” value (woolly cupgrass; [5]) was 10, the “Cupgrass, Woolly plant response rating” value (woolly cupgrass; [11]) was 10 and the “Plant response rating, Cupgrass, Woolly” value (woolly cupgrass; [12]) was 10. The “Plant response rating, Cupgrass, Woolly” value (woolly cupgrass; [13]) was 5, the “Plant response rating, Cupgrass, Woolly” value (woolly cupgrass; [14]) was 5 and the “Plant response rating, Foxtail, Giant” value (giant foxtail; [3]) was 0. The “Plant response rating, Foxtail, Giant” value (giant foxtail; [6]) was 20, the “Plant response rating, Foxtail, Giant” value (giant foxtail; [4]) was 60 and the “Plant response rating, Foxtail, Giant” value (giant foxtail; [5]) was 80. The “Foxtail, Giant plant response rating” value (giant foxtail; [11]) was 20, the “Plant response rating, Foxtail, Giant” value (giant foxtail; [12]) was 15 and the “Plant response rating, Foxtail, Giant” value (giant foxtail; [13]) was 10. The “Plant response rating, Foxtail, Giant” value (giant foxtail; [14]) was 10, the “Plant response rating, Lambsquarters” value (lambsquarters; [3]) was 100 and the “Plant response rating, Lambsquarters” value (lambsquarters; [6]) was 100. The “Plant response rating, Lambsquarters” value (lambsquarters; [4]) was 100, the “Plant response rating, Lambsquarters” value (lambsquarters; [5]) was 100 and the “Lambsquarters plant response rating” value (lambsquarters; [11]) was 100. For the same compound, the “Plant response rating, Lambsquarters” value (lambsquarters; [12]) was 100, the “Plant response rating, Lambsquarters” value (lambsquarters; [13]) was 65 and the “Plant response rating, Lambsquarters” value (lambsquarters; [14]) was 50. For the same compound, the “Plant response rating, Morningglory” value (morningglory; [3]) was 0, the “Plant response rating, Morningglory” value (morningglory; [6]) was 0 and the “Plant response rating, Morningglory” value (morningglory; [4]) was 0. For the same compound, the “Plant response rating, Morningglory” value (morningglory; [5]) was 0, the “Plant response rating, Morningglory” value (morningglory; [12]) was 80 and the “Plant response rating, Morningglory” value (morningglory; [13]) was 10. The “Plant response rating, Morningglory” value (morningglory; [14]) was 5, the “Plant response rating, Nutsedge, Yellow” value (yellow nutsedge; [3]) was 0 and the “Plant response rating, Nutsedge, Yellow” value (yellow nutsedge; [6]) was 0. For the same compound, the “Plant response rating, Nutsedge, Yellow” value (yellow nutsedge; [4]) was 0, the “Plant response rating, Nutsedge, Yellow” value (yellow nutsedge; [5]) was 0 and the “Nutsedge, Yellow plant response rating” value (yellow nutsedge; [11]) was 0. The “Plant response rating, Nutsedge, Yellow” value (yellow nutsedge; [12]) was 0, the “Plant response rating, Nutsedge, Yellow” value (yellow nutsedge; [13]) was 0 and the “Plant response rating, Nutsedge, Yellow” value (yellow nutsedge; [14]) was 0. For the same compound, the “Plant response rating, Sunflower” value ([1]; 62 g ai/ha, scale 0 to 100) was 0, the “Plant response rating, Sunflower” value ([1]; 250 g ai/ha, scale 0-100) was 0 and the “Plant response rating, Sunflower” value [1, 7] was 0. The “Rice plant response rating” value (rice; 62 g ai/ha, scale 0 to 100) was 0, the “Rice plant response rating” value (rice; [8]) was 0 and the “Rice plant response rating” value (rice; [9]) was 45. The “Plant response rating, Rice” value (rice; [10]) was 70, the “Sedge, Umbrella plant response rating” value ([2]; 62 g ai/ha, scale 0 to 100) was 65 and the “Sedge, Umbrella plant response rating” value [2, 8] was 80. For the same compound, the “Sedge, Umbrella plant response rating” value [2, 9] was 85, the “Plant response rating, Sedge, Umbrella” value [2, 10] was 85 and the “Ducksalad plant response rating” value (ducksalad; 62 g ai/ha, scale 0 to 100) was 20. For the same compound, the “Ducksalad plant response rating” value (ducksalad; [8]) was 90, the “Ducksalad plant response rating” value (ducksalad; [9]) was 95 and the “Plant response rating, Ducksalad” value (ducksalad; [10]) was 95.
